14 compounds from patent US10702498B2 (priority 2015, dated 2020) can be followed below.

Read-outs that look alike come from different tables or passages of the source. A value given as a limit tells only on which side of the number the result lay.

The target in data set [1] is hMOR + Gqi5 (Homo sapiens (Human), UniProt P35372). The experiment in a line: IP accumulation assay. As to conditions: % morphine. The data set is classed as cell-based.
Data set [2] deals with hKOR (Homo sapiens (Human), UniProt P41145). The experiment in a line: Receptor binding, [3H]diprenorphine.
Sequence of hKOR (P41145 whole entry): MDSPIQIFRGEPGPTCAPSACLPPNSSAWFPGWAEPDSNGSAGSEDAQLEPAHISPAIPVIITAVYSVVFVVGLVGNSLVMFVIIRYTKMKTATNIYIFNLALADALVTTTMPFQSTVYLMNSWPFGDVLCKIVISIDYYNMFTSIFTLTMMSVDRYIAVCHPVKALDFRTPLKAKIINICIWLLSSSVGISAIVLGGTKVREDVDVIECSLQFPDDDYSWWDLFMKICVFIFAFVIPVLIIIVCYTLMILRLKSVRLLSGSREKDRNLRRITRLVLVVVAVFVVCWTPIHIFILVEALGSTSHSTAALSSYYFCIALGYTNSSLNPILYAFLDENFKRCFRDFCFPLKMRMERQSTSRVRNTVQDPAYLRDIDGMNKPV
In data set [3] the target is humanDOR (Homo sapiens (Human), UniProt P41143). Briefly: Receptor binding, [3H]diprenorphine.
Sequence of humanDOR (P41143 whole entry): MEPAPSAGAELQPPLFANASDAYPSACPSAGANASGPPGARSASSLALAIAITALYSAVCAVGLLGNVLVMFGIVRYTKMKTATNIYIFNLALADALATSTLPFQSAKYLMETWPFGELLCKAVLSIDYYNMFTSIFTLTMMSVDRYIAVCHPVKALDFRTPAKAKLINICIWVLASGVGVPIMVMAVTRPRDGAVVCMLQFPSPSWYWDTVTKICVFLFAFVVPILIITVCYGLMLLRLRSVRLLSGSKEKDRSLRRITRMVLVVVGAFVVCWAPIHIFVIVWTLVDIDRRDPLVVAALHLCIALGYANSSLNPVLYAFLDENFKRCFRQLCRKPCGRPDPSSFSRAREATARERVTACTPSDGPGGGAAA
Data set [4] has as its target human μOR β-arrestin2 recruitment + GRK2 (Homo sapiens (Human), UniProt P35372). Briefly: β-Arrestin2 recruitment with GRK2 co-expression (BRET). The data set is classed as cell-based.
Data set [5] addresses T1, MOR (Homo sapiens (Human), UniProt P35372). The experiment in a line: Functional annotation (MOR agonist / antagonist), method not stated.
In data set [6] the target is T2, μOR β-arrestin2 recruitment (Homo sapiens (Human), UniProt P35372). The experiment in a line: β-Arrestin2 recruitment without GRK2 co-expression (BRET). The data set is classed as cell-based.
For data set [7], the target named is T3, μOR (Homo sapiens (Human), UniProt P35372). The experiment in a line: cell-based. The data set is classed as cell-based.
For data set [8], the target named is T1, MOR. The experiment in a line: Receptor binding, [3H]diprenorphine. As to conditions: binding affinity Ki [nM] hMOR.
Data set [9] deals with T3, μOR. Briefly: BRET-based cAMP accumulation assay (Gi/o signaling, SAR of PZM21-29). The data set is classed as cell-based. As to conditions: for loss of potency in Gi/o signaling assay: compared to parent reference compound (PZM22).
The subject of data set [10] is mice. Briefly: Conditioned place preference. The data set is classed as in vivo. As to conditions: mouse. The protocol: On day 1 (preconditioning day), mice were placed in the central chamber and allowed to explore freely for 30 minutes. Time spent in each compartment was used to estimate baseline chamber preferences and mice showing specific chamber bias more than 70% were not studied further. On days 2-9 (conditioning days) mice were injected with either vehicle or drug and paired with either the white mesh or the black rod chambers. All mice received vehicle on days 2, 4, 6, 8 and drug on days 3, 5, 7, 9. On day 10 (test day), mice were again placed in the central chamber as on day 1 and allowed to explore freely for 30 minutes. Time spent in each chamber was expressed as percentage preference.

Data set [11] has as its system mice. Briefly: Whole body plethysmography (respiration). To be noted: mouse; equianalgesic doses PZM21 40 mg/kg, TRV130 […], morphine 10 mg/kg.
Data set [12] concerns the target T4, κOR (Homo sapiens (Human), UniProt P41145). Briefly: Gi/o Glosensor assay (agonist and antagonist mode).
The target in data set [13] is T4, κOR. The data set is classed as binding. To be noted: no Ki given.
For data set [14], the target named is nociceptin receptor (Homo sapiens (Human), UniProt P41146). The experiment in a line: Gi/o Glosensor assay. As to conditions: read-out: Gi/o (Glosensor) Emax (%) nociceptin.
Data set [15] concerns the target T2, μOR β-arrestin2 recruitment. The experiment in a line: β-Arrestin recruitment, PathHunter enzyme complementation assay (DiscoveRx OPRM1 CHO-K1). The data set is classed as cell-based. To be noted: read-out: Arrestin recruitment (PathHunter) Emax (%) μOR.

T1 sequence (P35372 whole entry): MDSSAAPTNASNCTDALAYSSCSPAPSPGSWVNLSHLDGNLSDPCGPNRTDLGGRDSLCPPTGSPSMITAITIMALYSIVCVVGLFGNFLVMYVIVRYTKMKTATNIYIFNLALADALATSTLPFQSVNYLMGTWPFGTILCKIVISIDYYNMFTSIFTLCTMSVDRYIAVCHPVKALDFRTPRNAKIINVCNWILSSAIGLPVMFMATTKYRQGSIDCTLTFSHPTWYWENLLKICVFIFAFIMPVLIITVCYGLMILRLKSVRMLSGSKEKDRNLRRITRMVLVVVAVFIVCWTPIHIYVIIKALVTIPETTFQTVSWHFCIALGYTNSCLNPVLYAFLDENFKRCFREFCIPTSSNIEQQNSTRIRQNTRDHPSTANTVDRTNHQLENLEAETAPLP

Take `C[C@H](Cc1ccsc1)NC(=O)NC[C@H](Cc1ccc(O)cc1)N(C)C` (stereo in doubt) [BD 122LR]: the “hMOR + Gqi5 IP accumulation assay efficacy a” value in data set [1] is “a: 17%”. Besides, the Ki worked out at 190 nM in data set [2] (binding affinity Ki [nM] hKOR), 190 ± 23 nM in data set [2] (hKOR [3H]dyprenorphine Ki), 88 ± 16 nM in data set [3] and 88 nM in [3] (read-out: binding affinity Ki [nM] hDOR).
Turning to `Cc1cc(O)cc(C)c1C[C@@H](CNC(=O)N[C@H](C)Cc1ccsc1)N(C)C` [BD 131LR, 1-((S)-2-(dimethylamino)-3-(4-hydroxy-2,6-dimethylphenyl)propyl)-3-((R)-1-(thiophen-3-yl)propan-2-yl)urea], the “hMOR + Gqi5 IP accumulation assay efficacy a @ 10 μM” value in data set [1] (@ 10 μM) was “@ 10 μM a: 10%”.
As to `CN(C)[C@H](CNC(=O)NCCc1ccsc1)Cc1ccc(O)cc1` [DD 16, (S)-1-(2-(dimethylamino)-3-(4-hydroxyphenyl)propyl)-3-(2-(thiophen-3-yl)ethyl)urea], the “Arrestin + GRK2 pEC50” value in data set [4] (GRK2 co-expressed) amounted to 6.843. The EC50 in [5] (read-out: MOR agonist (potency printed under structure)) amounted to 58 nM. Moreover, the “Arrestin pEC50” value in data set [6] turned out to be 6.387. The “Gi/o pEC50” value in data set [7] is on record as 8.122.
Turning to `Cc1cc(O)cc(C)c1C[C@@H](CNC(=O)NCCc1ccsc1)N(C)C` [DD 34L, (S)-1-(2-(dimethylamino)-3-(4-hydroxy-2,6-dimethylphenyl)propyl)-3-(2-(thiophen-3-yl)ethyl)urea], the “hMOR + Gqi5 IP accumulation assay efficacy a” value in data set [1] is given as “a: <5%”. Also, the “functional mode” value in data set [5] is “DD 34L (ANTAGONIST) [drawing 446]”.
Take `Cc1cc(O)cc(C)c1C[C@@H](CNC(=O)NCCN1C(=O)C=CC1=O)N(C)C` [DD 144, (S)-1-(2-(dimethylamino)-3-(4-hydroxy-2,6-dimethylphenyl)propyl)-3-(2-(2,5-dioxo-2,5-dihydro-1H-pyrrol-1-yl)ethyl)urea]: the “functional mode” value in [5] is “DD 144 (ANTAGONIST, Covalent) [drawing 452]”.
Regarding `CN(C)[C@H](CNC(=O)NCCc1ccc(F)cc1)Cc1ccc(O)cc1` [DDLM-15, (S)-1-(2-(dimethylamino)-3-(4-hydroxyphenyl)propyl)-3-(4-fluorophenethyl)urea], the results for the Ki in data set [8], in [2] (binding affinity Ki [nM] hKOR) and in data set [3] were 27 nM, 190 nM and 250 nM, respectively.
As to `CN(CC1CC1)[C@H](CNC(=O)NCCc1ccccc1)Cc1ccc(O)cc1` [PZM27, (S)-1-(2-((Cyclopropylmethyl)(methyl)amino)-3-(4-hydroxyphenyl)propyl)-3-phenethylurea×CF3COOH], in [9], the “agonist efficacy / potency in Gi/o signaling assay” value is listed as “decreased efficacy” and the “loss of potency in Gi/o signaling assay” value came to 30 fold.
On to `CN(C=O)[C@H](CNC(=O)NCCc1ccccc1)Cc1ccc(O)cc1` [PZM28, (S)—N-(1-(4-Hydroxyphenyl)-3-(3-phenethylureido)propan-2-yl)-N-methylformamide], for which the “loss of potency in Gi/o signaling assay” value in [9] was 1000 fold.
For the compound `CN(C)[C@H](CNC(=O)NCCc1cn(CCSSCCN=[N+]=[N-])nn1)Cc1ccc(O)cc1` [PZM29, (S)-1-(2-(1-(2-((2-Azidoethyl)disulfanyl)ethyl)-1H-1,2,3-triazol-4-yl)ethyl)-3-(2-(dimethylamino)-3-(4-hydroxyphenyl)propyl)urea×CF3COOH], in [9], the “agonist efficacy / potency in Gi/o signaling assay” value is “retains its efficacy as an agonist”.
For `COc1ccsc1CNCC[C@@]1(c2ccccn2)CCOC2(CCCC2)C1` [TRV130, reference compound], in data set [10], the “conditioned place preference” value is on record as “not significant relative to vehicle”. Also, the “respiration frequency / respiratory depression” value in data set [11] is “significantly depresses respiration at 15 minutes”. The “arrestin recruitment with over-expressed GRK2” value in [4] is reported as “we observe arrestin recruitment”. In addition, the “β-arrestin2 recruitment in the absence of GRK2” value in data set [6] is given as “no β-arrestin2 recruitment”. In data set [12], the “κOR agonist activity” value is reported as “activates KOR with similar potency to morphine”.
As for `CN(Cc1nnc(C2CC2)n1C)C(=O)NC[C@@H](Cc1ccccc1)N(C)C` [compound 10], the “κOR binding, given as <50%” value in data set [13] is below 50%.
In the case of `CN(C)[C@@H](CNC(=O)NC[C@@H](O)c1cnn(C)c1)Cc1ccccc1` [compound 11], the “κOR binding, given as <50%” value in data set [13] is given as below 50%.
On to `C[C@H](Cc1ccsc1)NC(=O)NC[C@@H](Cc1ccccc1)N(C)C` [compound 12], for which the Emax worked out at 43% in data set [14], 88% in data set [7] (read-out: Gi/o (Glosensor) Emax (%) μOR) and 9.4% in [15].
`Cc1nc(CNC(=O)NC[C@@H](Cc2ccccc2)N(C)C)sc1C` [compound 15]: the “κOR binding, given as <50%” value in data set [13] was below 50%.
